The source of these data is patent US8420670B2 (Abbott Laboratories, priority 2007, dated 2013).

The target in test [1] is T1, Human GlyT1c (Homo sapiens, UniProt P48067).
T1 construct: expressed in transfected cells; host or cells: CHO (hGlyT1c_5_CHO clone)
T1 sequence (P48067 1-706): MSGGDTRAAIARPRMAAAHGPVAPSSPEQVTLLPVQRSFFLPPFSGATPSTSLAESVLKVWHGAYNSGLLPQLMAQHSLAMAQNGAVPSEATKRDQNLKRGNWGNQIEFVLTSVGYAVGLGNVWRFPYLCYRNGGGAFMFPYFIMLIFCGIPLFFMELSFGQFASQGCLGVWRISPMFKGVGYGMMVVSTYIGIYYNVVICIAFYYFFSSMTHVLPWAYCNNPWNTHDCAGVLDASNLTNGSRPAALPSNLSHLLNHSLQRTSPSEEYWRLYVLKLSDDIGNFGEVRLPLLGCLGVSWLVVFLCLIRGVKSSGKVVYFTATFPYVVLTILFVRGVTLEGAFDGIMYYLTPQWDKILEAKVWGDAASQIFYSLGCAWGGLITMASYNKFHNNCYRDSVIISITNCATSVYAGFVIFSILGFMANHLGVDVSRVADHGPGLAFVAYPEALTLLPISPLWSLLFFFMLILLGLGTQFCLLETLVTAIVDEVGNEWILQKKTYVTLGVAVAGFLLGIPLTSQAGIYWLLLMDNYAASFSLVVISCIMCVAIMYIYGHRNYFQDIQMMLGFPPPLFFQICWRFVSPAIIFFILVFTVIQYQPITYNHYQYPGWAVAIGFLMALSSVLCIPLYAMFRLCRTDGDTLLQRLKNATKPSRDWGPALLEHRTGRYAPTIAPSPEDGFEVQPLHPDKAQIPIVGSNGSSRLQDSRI
In words: Glycine uptake in recombinant hGlyT1 expressing cells. To be noted: hGlyT1c_5_CHO cells; [3H]-glycine uptake, 60-120 min. In kind it is cell-based. The method, then:
1. Glycine Uptake in Recombinant hGlyT1 Expressing Cells:
Human GlyT1c expressing recombinant hGlyT1c—5_CHO cells were plated at 20,000 cells per well in 96 well Cytostar-T scintillation microplates (Amersham Biosciences) and cultured to sub-confluency for 24 h. For glycine uptake assays the culture medium was aspirated and the cells were washed once with 100 μl HBSS (Gibco BRL, #14025-050) with 5 mM L-Alanine (Merck #1007). 80 μl HBSS buffer were added, followed by 10 μl inhibitor or vehicle (10% DMSO) and 10 μl [^3H]-glycine (TRK71, Amersham Biosciences) to a final concentration of […] for initiation of glycine uptake. The plates were placed in a Wallac Microbeta (PerkinElmer) and continuously counted by solid phase scintillation spectrometry during up to 3 hours. Nonspecific uptake was determined in the presence of 10 μM Org24598. IC50 calculations were made by four-parametric logistic nonlinear regression analysis (GraphPad Prism) using determinations within the range of linear increase of [^3H]-glycine incorporation between 60 and 120 min.

The target in test [2] is T2, human GlyT1c transporter (Homo sapiens, UniProt P48067).
T2 construct: expressed in transfected cells; host or cells: recombinant hGlyT1-expressing cells
T2 sequence (P48067 1-706): T1 sequence (P48067 1-706)
As to the kind of experiment: [3H]-(R)-NPTS radioligand binding assay using recombinant hGlyT1 expressing cell membranes. The settings on record: 0.5 nM [3H]-(R)-NPTS, apparent Ki via Cheng-Prusoff, read-out: [3H]-(R)-NPTS bindung Ki. The method, then: 2. [^3H]-(R)-NPTS Radioligand Binding Assays using Recombinant hGlyT1 Expressing Cell Membranes:
Radioligand binding to human GlyT1c transporter-expressing membranes was measured in duplicate in a total volume of 200 μl in 96-well plates. To 100 μl of membrane suspension (yielding a final membrane protein concentration of 50 μg/ml) in assay buffer (120 mM NaCl, 2 mM KCl, 10 mM Hepes, 1 mM MgCl2, 1 mM CaCl2, pH 7.5) […] of [^3H]-(R)NPTS (0.5 nM final) were added in assay buffer. For competition experiments 10 μl of buffer or unlabeled compound solution obtained from dilution series of test compounds in DMSO followed. An intermediate 1:10 dilution in assay buffer yielded a final DMSO concentration of 1%. Non-specific binding was determined in the presence of 10 μM Org24598 (or its racemate Org24461) for [^3H]-(R)-NPTS. After incubation at room temperature for 1 h, the incubation mixture was harvested (Tomtec Mach III U Harvester) through 96-well GF/B filter plates (PerkinElmer), presoaked for 1 h with 40 μl per well of 0.1% polyethylene-imine (PEI). After washing twice with ice-cold 50 mM Tris-HCl pH 7.4 buffer, drying and addition of 35 μl scintillator (BetaplateScint, PerkinElmer) per well followed. The radioactivity was determined by liquid scintillation spectrometry in a MicroBeta (PerkinElmer) plate counter.
Data analysis: For binding of [^3H]-(R)-NPTS to cell membranes, the calculation of Kd and Bmax values from the saturation binding assays and the IC50 values from the displacement binding was performed by iterative non-linear regression analysis adapted from the ‘Ligand’ program (Munson and Rodbard, 1980). Radioligand displacement curves in absence or in presence of increasing concentrations of tested compounds were fitted using a one-site fit and the apparent Ki values were calculated from the IC50 values using the Cheng-Prusoff equation (Cheng and Prusoff 1973).

Counter-ions that a name gives are not always drawn.

Broadly, the IC50 is the concentration at which inhibition is half-maximal. Regarding `COc1cccc2c(NC(CN(C)C)c3ccc(Cl)cc3)cc(C)nc12` (racemic) [Example 68, (rac)-1-(4-Chlorophenyl)-N*1*-(8-methoxy-2-methylquinolin-4-yl)-N*2*,N*2*-dimethylethane-1,2-diamine dihydrochloride], in test [1], the half-inhibitory concentration (IC50) is no more than 0.1 µM. Also, the Ki in test [2] was no more than 0.01 µM.

For `Cc1cc(NCc2ccc(Cl)c(Cl)c2)c2cccc(S(=O)(=O)N(C)C)c2n1` [Example 1, 4-(3,4-Dichlorobenzylamino)-2-methylquinoline-8-sulfonic dimethylamide], the IC50 in test [1] was no more than 10 µM. Also, in test [2], the Ki was no more than 1 µM.

For the molecule `Cc1cc(NCc2ccc(Cl)c(Cl)c2)c2cccc(S(N)(=O)=O)c2n1` [Example 2, 4-(3,4-Dichlorobenzylamino)-2-methylquinoline-8-sulfonamide], the IC50 in test [1] was no more than 1000 µM. In addition, the Ki in test [2] was no more than 1 µM.

As for `Cc1cc(NCc2ccc(Cl)c(Cl)c2)c2cccc(S(=O)(=O)NC(C)C)c2n1` [Example 3, 4-(3,4-Dichlorobenzylamino)-2-methyl-quinoline-8-sulfonic isopropylamide], the IC50 in test [1] is no more than 10 µM. For the same molecule, the Ki in test [2] is no more than 1 µM.

Take `Cc1cc(NCc2ccc(Cl)c(Cl)c2)c2cccc(S(=O)(=O)Nc3ccc(Cl)cc3)c2n1` [Example 4, 4-(3,4-Dichlorobenzylamino)-2-methylquinoline-8-sulfonic (4-chlorophenyl)-amide]: the 50% inhibitory concentration (IC50) in test [1] is no more than 100 µM. The Ki in test [2] is no more than 1 µM.

On to `Cc1cc(NCc2ccc(Cl)c(Cl)c2)c2cccc(N)c2n1` [Example 5, N*4*-(3,4-Dichlorobenzyl)-2-methylquinoline-4,8-diamine], for which the IC50 in test [1] was no more than 0.1 µM. In addition, in test [2], the Ki is no more than 0.1 µM.

Take `Cc1cc(NCc2ccc(Cl)c(Cl)c2)c2cccc(N3CCOCC3)c2n1` [Example 6, (3,4-Dichlorobenzyl)-(2-methyl-8-morpholin-4-yl-quinolin-4-yl)-amine hydrobromide]: in test [1], the IC50 was no more than 1 µM. For the same molecule, the Ki in test [2] was no more than 0.1 µM.

Consider `Cc1cc(NCc2ccc(Cl)c(Cl)c2)c2cccc(N3CCCC3)c2n1` [Example 7, (3,4-Dichlorobenzyl)-(2-methyl-8-pyrrolidin-1-yl-quinolin-4-yl)-amine hydrochloride], for which, in test [1], the IC50 is no more than 1 µM. In addition, in test [2], the Ki is no more than 1 µM.

Regarding `Cc1cc(NCc2ccc(Cl)c(Cl)c2)c2cccc(NS(=O)(=O)c3ccccc3)c2n1` [Example 8, N-[4-(3,4-Dichlorobenzylamino)-2-methylquinolin-8-yl]-phenylsulfonamide], the IC50 in test [1] was no more than 10 µM. The Ki in test [2] was no more than 1 µM.

`CCNc1cccc2c(NCc3ccc(Cl)c(Cl)c3)cc(C)nc12` [Example 9, N*4*-(3,4-Dichlorobenzyl)-N*8*-ethyl-2-methylquinolin-4,8-diamine]: the IC50 in test [1] was no more than 1 µM. The Ki in test [2] is no more than 0.1 µM.

For the molecule `Cc1cc(NCc2ccc(Cl)c(Cl)c2)c2cccc(NC(=O)c3ccccc3)c2n1` [Example 10, N-[4-(3,4-Dichlorobenzylamino)-2-methylquinolin-8-yl]-benzamide], the IC50 in test [1] was no more than 100 µM. Also, in test [2], the Ki is no more than 1 µM.

Take `Cc1cc(NCc2ccc(Cl)c(Cl)c2)c2cccc(N(S(C)(=O)=O)S(C)(=O)=O)c2n1` [Example 11, N-[4-(3,4-Dichlorobenzylamino)-2-methylquinolin-8-yl]-bis-methanesulfonamide]: in test [1], the IC50 is no more than 100 µM. In addition, in test [2], the Ki was no more than 10 µM.

On to `Cc1cc(NCc2ccc(Cl)c(Cl)c2)c2cccc(NS(C)(=O)=O)c2n1` [Example 12, N-[4-(3,4-Dichlorobenzylamino)-2-methylquinolin-8-yl]-methanesulfonamide], for which, in test [1], the IC50 was no more than 10 µM. Also, the Ki in test [2] is no more than 1 µM.

Regarding `CC(=O)Nc1cccc2c(NCc3ccc(Cl)c(Cl)c3)cc(C)nc12` [Example 13, N-[4-(3,4-Dichlorobenzylamino)-2-methylquinolin-8-yl]-acetamide], the IC50 in test [1] is no more than 1 µM. In test [2], the Ki is no more than 1 µM.
